Experimental data taken from ChEMBL document CHEMBL1275453, “Resistance trends of the Bacteroides fragilis group over a 10-year period, 1997 to 2006, in Madrid, Spain” (2008).

Assays:
Assay type in all cases: functional
[1] = system: Phocaeicola vulgatus; assay: Antibacterial activity against Bacteroides vulgatus isolate by agar dilution method
[2] = system: Parabacteroides merdae; assay: Antibacterial activity against Bacteroides merdae isolate by agar dilution method
[3] = system: Parabacteroides distasonis; assay: Antibacterial activity against Bacteroides distasonis isolate by agar dilution method
[4] = system: Bacteroides fragilis; assay: Antibacterial activity against Bacteroides fragilis assessed as percent resistant isolates by agar dilution method
[5] = system: Bacteroides stercoris; assay: Antibacterial activity against Bacteroides stercoris assessed as percent resistant isolates by agar dilution method; conditions: pooled result: one value given for 4 cell lines, strains, targets or settings
[6] = system: Bacteroides uniformis; assay: Antibacterial activity against Bacteroides uniformis isolate by agar dilution method
[7] = system: Bacteroides eggerthii; assay: Antibacterial activity against Bacteroides eggerthii isolate by agar dilution method
[8] = system: Bacteroides ovatus; assay: Antibacterial activity against Bacteroides ovatus isolate by agar dilution method
[9] = system: Bacteroides stercoris; assay: Antibacterial activity against Bacteroides stercoris isolate by agar dilution method
[10] = system: Bacteroides ovatus; assay: Antibacterial activity against Bacteroides ovatus assessed as percent resistant isolates by agar dilution method
[11] = system: Bacteroides thetaiotaomicron; assay: Antibacterial activity against Bacteroides thetaiotaomicron isolate by agar dilution method
[12] = system: Bacteroides uniformis; assay: Antibacterial activity against Bacteroides uniformis assessed as percent resistant isolates by agar dilution method
[13] = system: Bacteroides fragilis; assay: Antibacterial activity against Bacteroides fragilis isolate by agar dilution method
[14] = system: Bacteroides thetaiotaomicron; assay: Antibacterial activity against Bacteroides thetaiotaomicron assessed as percent resistant isolates by agar dilution method
[15] = system: Parabacteroides distasonis; assay: Antibacterial activity against Bacteroides distasonis assessed as percent resistant isolates by agar dilution method
[16] = system: Phocaeicola vulgatus; assay: Antibacterial activity against Bacteroides vulgatus assessed as percent resistant isolates by agar dilution method
[17] = system: Bacteroides sp.; assay: Antibacterial activity against Bacteroides spp. isolate by agar dilution method
[18] = system: Bacteroides caccae; assay: Antibacterial activity against Bacteroides caccae isolate by agar dilution method
[19] = system: Bacteroides caccae; assay: Antibacterial activity against Bacteroides caccae assessed as percent resistant isolates by agar dilution method

CO[C@@]1(NC(=O)Cc2cccs2)C(=O)N2C(C(=O)O)=C(COC(N)=O)CS[C@@H]21 [CEFOXITIN]
6.4%: Activity [4]
9.4%: Activity [12]
23.6%: Activity [14]
23.9%: Activity [5]
32 µg/mL: MIC50 [3] | MIC90 [6] | MIC50 [11] | MIC90 [13] | MIC90 [18]
64 µg/mL: MIC90 [1] | MIC90 [2] | MIC90 [3] | MIC90 [7] | MIC90 [8] | MIC90 [9] | MIC90 [11] | MIC90 [17]
8 µg/mL: MIC50 [13]
16 µg/mL: MIC50 [1] | MIC50 [2] | MIC50 [6] | MIC50 [7] | MIC50 [8] | MIC50 [9] | MIC50 [17] | MIC50 [18]
12.2%: Activity [10]
17%: Activity [16]
25.6%: Activity [15]
8.9%: Activity [19]

O=C(N[C@H](CO)[C@H](O)c1ccc([N+](=O)[O-])cc1)C(Cl)Cl [CHLORAMPHENICOL]
8 µg/mL: MIC90 [1] | MIC90 [2] | MIC50 [3] | MIC90 [3] | MIC90 [6] | MIC90 [7] | MIC90 [8] | MIC90 [9] | MIC90 [11] | MIC90 [13] | MIC90 [17] | MIC90 [18]
4 µg/mL: MIC50 [1] | MIC50 [2] | MIC50 [6] | MIC50 [7] | MIC50 [8] | MIC50 [9] | MIC50 [11] | MIC50 [13] | MIC50 [17] | MIC50 [18]
0%: Activity [4] | Activity [5] | Activity [10] | Activity [12] | Activity [14] | Activity [15] | Activity [16] | Activity [19]

CCC[C@@H]1C[C@@H](C(=O)N[C@@H]([C@H]2O[C@H](SC)[C@H](O)[C@@H](O)[C@H]2O)[C@H](C)Cl)N(C)C1 [CLINDAMYCIN]
40.6%: Activity [12]
> 256 µg/mL: MIC90 [1] | MIC90 [2] | MIC90 [3] | MIC90 [6] | MIC90 [7] | MIC90 [8] | MIC90 [9] | MIC90 [11] | MIC90 [13] | MIC90 [17] | MIC90 [18]
45.7%: Activity [5]
44.7%: Activity [16]
33.3%: Activity [4]
47.3%: Activity [14]
48.8%: Activity [10]
2 µg/mL: MIC50 [6] | MIC50 [13]
41.9%: Activity [15]
4 µg/mL: MIC50 [1] | MIC50 [2] | MIC50 [3] | MIC50 [7] | MIC50 [8] | MIC50 [9] | MIC50 [11] | MIC50 [17] | MIC50 [18]
46.7%: Activity [19]
